{"source": "paper PMC6662757", "about": "“A small molecule inhibitor of ER-to-cytosol protein dislocation exhibits anti-dengue and anti-Zika virus activity” (Scientific Reports, 2019)", "key": {"OS9": {"target": "T1, OS9 (Homo sapiens, UniProt Q13438)", "T1 construct": "endogenous protein in HeLa cells, heated in NP-40 lysate; component of the Hrd1 complex", "T1 sequence (Q13438 26-667)": "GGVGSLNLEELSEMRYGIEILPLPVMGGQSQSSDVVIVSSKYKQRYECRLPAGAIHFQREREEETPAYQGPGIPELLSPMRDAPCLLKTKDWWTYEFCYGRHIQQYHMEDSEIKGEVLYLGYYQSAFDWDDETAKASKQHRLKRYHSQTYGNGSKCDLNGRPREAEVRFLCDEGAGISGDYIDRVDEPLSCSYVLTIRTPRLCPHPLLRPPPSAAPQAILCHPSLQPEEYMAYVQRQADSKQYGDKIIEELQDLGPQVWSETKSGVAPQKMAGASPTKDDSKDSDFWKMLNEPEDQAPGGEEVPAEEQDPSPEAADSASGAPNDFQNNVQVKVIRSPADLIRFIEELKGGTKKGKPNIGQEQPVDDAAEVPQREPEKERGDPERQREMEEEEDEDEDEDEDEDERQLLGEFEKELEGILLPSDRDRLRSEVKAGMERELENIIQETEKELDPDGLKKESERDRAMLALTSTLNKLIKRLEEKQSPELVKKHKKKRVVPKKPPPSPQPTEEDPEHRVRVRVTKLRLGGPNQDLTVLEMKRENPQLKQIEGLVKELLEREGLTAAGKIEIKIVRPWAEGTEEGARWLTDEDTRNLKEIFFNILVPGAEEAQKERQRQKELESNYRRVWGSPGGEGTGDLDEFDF", "assay": "cellular thermal shift assay (CETSA), immunoblot", "format": "cell-based", "settings": "HeLa cells treated with 10 µM CP26, 37 °C, 2 h, then lysed in 0.4% NP-40 and heated 3 min; direct target within the Hrd1 complex not defined"}, "Derlin2": {"target": "T2, Derlin2 (Homo sapiens, UniProt Q9GZP9)", "T2 construct": "gene DERL2; endogenous protein in HeLa cells, heated in NP-40 lysate; component of the Hrd1 complex", "T2 sequence (Q9GZP9 1-239)": "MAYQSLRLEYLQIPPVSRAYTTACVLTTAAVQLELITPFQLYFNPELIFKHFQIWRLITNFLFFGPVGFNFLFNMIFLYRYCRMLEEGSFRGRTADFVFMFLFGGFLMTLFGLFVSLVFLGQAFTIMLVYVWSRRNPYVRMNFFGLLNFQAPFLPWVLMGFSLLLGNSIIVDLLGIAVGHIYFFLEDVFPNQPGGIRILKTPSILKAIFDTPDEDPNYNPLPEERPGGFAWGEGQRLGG", "assay": "cellular thermal shift assay (CETSA), immunoblot", "format": "cell-based", "settings": "HeLa cells treated with 10 µM CP26, 37 °C, 2 h, then lysed in 0.4% NP-40 and heated 3 min; direct target within the Hrd1 complex not defined"}}}
{"smiles": "Cc1ccc(C=C2C(Cl)=C(Cl)C(Cl)=C2Cl)cc1", "note": "[CP26, 1-methyl-4-[(2,3,4,5-tetrachlorocyclopenta-2,4-dien-1-ylidene)methyl]benzene]", "values": [{"measurement": "thermal stability increase", "setting": "OS9", "value": "CP26 selectively increased the thermal stability of Derlin2 and OS9"}, {"measurement": "thermal stability increase", "setting": "Derlin2", "value": "CP26 selectively increased the thermal stability of Derlin2 and OS9"}]}
